Results from the METLIN SMRT retention time set (Domingo-Almenara et al. 2019).

experiment: gradient 5% acetonitrile 3 min, to 50% in 2 min, to 85% in 15 min, held 3 min, 100 µL/min; details: column: Zorbax Extend-C18 2.1 x 50 mm; eluents: water / acetonitrile, 0.1% formic acid
How it was run: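 A Zorbax Extend-C18 column (2.1 × 50 mm, 1.8 μm) run at 100 μL/min with water and acetonitrile, both containing 0.1% formic acid, separated mixtures of ~100 pure standards. The HPLC was coupled to a quadrupole time-of-flight mass spectrometer operated in positive and negative ionization mode, with dead and dwell volumes of 40 μL and 900 μL. Each retention time was taken from a computationally picked adduct peak that was then manually inspected.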

RP-LC retention time	Compound
846 s	CCn1nnc2cc(-c3noc(C(C)NS(=O)(=O)c4ccc(C)cc4)n3)ccc21 (stereo not given)
751 s	CC(C)n1c(-c2cccc(C(=O)NCc3ccco3)c2)nc2cccnc21
1200 s	O=C(Nc1ccc(F)cc1)c1c(O)c2cccnc2n(-c2ccc(F)cc2)c1=O
983 s	Cc1ccc(N2C(=O)CN(S(=O)(=O)c3ccccc3)CC2(C)C(=O)NC2CCCC2)c(C)c1 (stereo not given)
830 s	COc1ccc(CNC(=O)C2CCN(S(C)(=O)=O)c3cc(C)ccc3O2)cc1 (stereo not given)
895 s	CSc1ccccc1-c1nnc(NC(=O)C(c2ccccc2)c2ccccc2)o1
1320 s	CC(C)(C)c1csc(-c2csc(S(=O)(=O)NC3CCCCC3)c2)n1
836 s	CC(C)(C)NC(=O)N1CCC(CNC(=O)C(=O)Nc2ccccc2Cl)CC1
1000 s	CCCn1cc(C(=O)NCCCOC)c(S(=O)(=O)N2CCN(c3ccc(Cl)cc3)CC2)n1
612 s	CCc1nn(CC(=O)N2CCN(c3ccccn3)CC2)c(=O)c2cc3sccc3n12
802 s	CCCNC(=O)c1sc(Nc2ccc(Br)cn2)nc1C
1010 s	Cc1noc(C2CN(C(=O)c3n[nH]c4ccccc34)CC23CCN(C)CC3)n1 (stereo not given)
1210 s	COC(=O)c1ccc2c(=O)n(-c3cccc(F)c3)c(N3CCCCCC3)nc2c1
843 s	Cc1ccc(CNC(=O)N2CCC3(CC2)NC(=O)c2ccc(Cl)cc2N3C)cc1
1010 s	CCc1nn2c(CNC(=O)c3ccc(Br)cc3)c(-c3ccccc3)nc2s1
612 s	Cc1noc([C@@H]2CN(CCCc3ccccc3)C[C@H]2CO)n1
875 s	CCCOCCOC(=O)C1=C(C)NC2=C(C(=O)CC(C)(C)C2)C1c1cccc(OC)c1OC (stereo not given)
875 s	O=C(C1=CN(c2ccc(Cl)cc2)c2cc(Cl)ccc2S1(=O)=O)N1CCOCC1
658 s	COC(=O)c1cccc(NC(=O)C2CCN(c3cc(N4CCCC4)ncn3)CC2)c1
571 s	CCOC(=O)N1CCN(C(=O)CN2CCC(COCc3ccccc3)CC2)CC1
955 s	COc1ccc(-n2ccnc(NC(=O)Nc3ccc(C)c(C)c3)c2=O)cc1OC
927 s	COc1cccc2sc(N(Cc3ccco3)C(=O)c3cc(C)nn3C)nc12
951 s	Cc1nc2cc(-c3noc(-c4sc(C)nc4C)n3)ccc2o1

RP-LC retention time	Compound
1040 s	O=c1ccc(-c2ccccc2)nn1CCc1nc(-c2ccc(Cl)cc2)no1
813 s	Cc1c(Cl)cccc1NC1=NS(=O)(=O)c2ccccc21
853 s	Cc1ccc(CNC(=O)C2(c3ccc(NC(=O)C4CC4)cc3)CCC2)cc1
619 s	CN1CCC2(CC1)CN(C(=O)C1CCC1)Cc1ccccc1O2
716 s	COc1ccc(OC)c2sc(NC(=O)c3cccc(N4C(=O)CCC4=O)c3)nc12
705 s	CCn1ccc(C(=O)NCc2cccnc2Oc2ccccc2)n1
572 s	CCCS(=O)(=O)N1CCCC(Cn2c(C)nc3cccnc32)C1 (stereo not given)
859 s	COc1cccc(-c2cn3ccn(-c4ccc(F)c(Cl)c4)c(=O)c3n2)c1
852 s	COc1ccc(-c2noc(CNC(=O)Nc3ccc(Cl)cc3)n2)cc1OC
911 s	Cc1nc(N2CCOCC2)c2c(C(=O)Nc3ccccc3Cl)c(C)oc2n1
614 s	Cc1ccnc(NC(=O)C2CCN(S(=O)(=O)c3cc(C(=O)N4CCOCC4)cs3)CC2)c1
786 s	CN(C)c1nn(CC(=O)Nc2ccc(S(C)(=O)=O)cc2)cc1-c1ccccc1
852 s	COc1ccc(NC(=O)C2CN(S(C)(=O)=O)CC23CCCCC3)cc1 (stereo not given)
827 s	Cc1ccc(C)c(CN2C(=O)NC3(CCN(C(=O)c4ccsc4)CC3)C2=O)c1
670 s	Cc1nnc2cc(N3CCN(S(=O)(=O)c4ccc(F)cc4)CC3)cnn12
1000 s	CC1COC2(CCN(c3nc(=O)c4cc(C(F)(F)F)cc([N+](=O)[O-])c4s3)CC2)O1 (stereo not given)
743 s	O=C(c1ccc(Cl)s1)N1CCN(S(=O)(=O)C2CC2)CC1
1010 s	O=S(=O)(Cc1ccccc1F)N1CCC(OCCOCc2ccccc2)CC1
945 s	CCN(CC)S(=O)(=O)N1CCCC(C(=O)NCCc2ccc(Cl)cc2)C1 (stereo not given)
778 s	COCCN1CCC2(CC1)CN(Cc1cc(Cl)ccc1F)Cc1ccccc1O2
1230 s	CCN1C(=O)COc2ccc(-c3noc(/C=C/c4ccc(C)cc4)n3)cc21
641 s	CCCCCCCNCc1ccc2c(c1)n(C)c(=O)n2C
652 s	NC(=O)C1CCCN(c2cccc3c2C(=O)c2ccccc2C3=O)C1 (stereo not given)

RP-LC retention time	Compound
764 s	CC(NC(=O)C(C)n1c2ccccc2c2cnn(C)c(=O)c21)C(=O)N1CCCCC1 (stereo not given)
1010 s	C=CCN1C(=O)COc2ccc(-c3nc(NC(=O)c4ccccc4Cl)sc3C)cc21
1250 s	COc1ccc(OC)c(NS(=O)(=O)c2cc(-c3nc(C(C)(C)C)cs3)cs2)c1
756 s	CSc1c(N(C)C)c(=O)c1=S
589 s	Cc1cccc(-c2nnc(C)c(N3CCN(c4ccccn4)CC3)n2)c1
725 s	O=C(NCc1cccs1)C1CCN(C(=O)c2ncn3c2COC(c2ccccc2)C3)CC1 (stereo not given)
646 s	Cc1ccc(Sc2ccc(N3CCC(C(=O)N4CCN(c5ccccn5)CC4)CC3)nn2)cc1
645 s	CCSc1nc2c(s1)c(=O)n(-c1ccccc1)c(=O)n2CC(=O)NC1CCCCC1
1050 s	O=S(=O)(Cc1ccccc1)N1CCCC(Cc2noc(-c3ccccc3)n2)C1 (stereo not given)
1050 s	CCn1c(C(=O)NCCCc2ccccc2)cc2sccc21
716 s	Cc1cc(C(=O)NC2CC2)c2cccc(Cl)c2n1
961 s	Cc1cccc(-c2noc(C3CCCN3C(=O)Nc3ccc4c(c3)OCO4)n2)c1 (stereo not given)
575 s	CCCN(C)CC1(O)CCC2(CCN(C(=O)c3ccoc3)CC2)CC1
696 s	Cc1ccc(F)c(NS(=O)(=O)c2cc3n(c2)CCN(C)C3=O)c1
792 s	O=C(Nc1ccccc1)N1CC(c2nc(CCOCC3CC3)no2)C1
1040 s	CCC(C)NC(=O)c1nnn(Cc2cccc(Cl)c2)c1-n1cccc1 (stereo not given)
662 s	COc1nn(C)cc1C(=O)NCc1cc(-c2cccs2)on1
680 s	COc1ccccc1C(=O)NCCn1cc(SCC(N)=O)c2ccccc21
792 s	COC(=O)c1c(NCCC(C)C)c2cc(F)ccc2[nH]c1=O
706 s	O=C(c1ccc(Cn2cncn2)cc1)N1CCc2ccccc21
676 s	O=C(Nc1cc(F)ccc1F)N1CCN(Cc2nc3cccnc3n2-c2ccccc2)CC1
672 s	CCNc1cc(N2CCCC(CCC(=O)NCc3ccccc3C)C2)ncn1 (stereo not given)
642 s	CC1CCCCN1Cc1nc(-c2ccc(N3CCSCC3)nc2)no1 (stereo not given)

RP-LC retention time	Compound
730 s	COc1cccc(C(=O)Nc2cc(-c3cccnc3)no2)c1
884 s	O=C(CCC1CCCC1)Nc1ccc(N2CCN(C3CCCC3)C2=O)nc1
663 s	CS(=O)(=O)N1CCC(C(=O)NCC2CCN(C(=O)Oc3ccccc3)CC2)CC1
634 s	O=C(Cn1cnc(-c2noc(-c3ccncc3)n2)c1)N1CCc2ccccc21
932 s	COc1ccc2[nH]cc(CCNC(=O)c3sc4ncccc4c3-n3cccc3)c2c1
644 s	CNC(=O)c1cccc(-c2noc(C)n2)c1
804 s	Cc1ccc(CNC(=O)C2CCCN(C(=O)c3[nH]c(C)cc3C)C2)cc1 (stereo not given)
657 s	Cn1cc(-c2cc3n(n2)CCC(=O)N3CC(=O)NCCCN2CCCC2=O)c2ccccc21
702 s	Nc1cc(C2CCN(S(=O)(=O)c3cccc4cccnc34)CC2)no1
902 s	CC1Oc2ccc(S(=O)(=O)N3CCC(C(=O)Nc4ccc(F)c(Cl)c4)CC3)cc2NC1=O (stereo not given)
1080 s	Cc1cccc(C)c1NC(=O)Cn1c(C)nc2c(sc3nc(-c4ccccc4)ccc32)c1=O
1330 s	COc1cc(Br)ccc1NC(=O)C1CCCN(c2nc3ccccc3nc2OC)C1 (stereo not given)
723 s	CCn1ccc2sc(C)c(C(=O)NCc3ccco3)c2c1=O
1320 s	Cc1ccc(NC(=O)c2sc(-n3cccc3)nc2C(C)C)cc1F
915 s	COC(=O)c1cc(OCC(=O)Nc2ccccc2Cl)c2cc(OC)ccc2n1
640 s	CC(NC(=O)Cc1cccc(F)c1)C(=O)Nc1nc2ccccc2[nH]1 (stereo not given)
943 s	CC1Oc2ccc(-c3csc(NC(=O)c4cccc(F)c4)n3)cc2N(C)C1=O (stereo not given)
1170 s	Cc1ccc(-c2noc(Cc3nnc(-c4cc(F)cc(F)c4)o3)n2)cc1C
833 s	CCCS(=O)(=O)N1CCc2c(c(CN(C(=O)c3ccccc3)c3ccccc3)nn2C)C1
982 s	Cc1ccc(-c2csc(-n3nc(C)c(CC(=O)Nc4cc(Cl)ccc4C)c3C)n2)cc1

Compound	RP-LC retention time
COc1ccc(C2=CC(c3ccc(OC)c(OC)c3)c3c(c4ccccc4oc3=O)O2)cc1OC (stereo not given)	1140 s
